Test results published in patent publication US20150203526A1, “NOVEL 19-NOR-STEROIDS AND THEIR USE FOR TREATING PROGESTERONE- DEPENDENT CONDITIONS” (REPROS THERAPEUTICS INC., priority 2010, published 2015).
≈ marks a conversion by molar mass, not a printed value. Read-outs that look alike come from different tables or passages of the source.

Assays:
[1] = Thermodynamic solubility (solid shaken in solvent at 37° C., filtrate by LC/UV); format: physicochemical; conditions: thermodynamic from solid
Procedure: Briefly, 300 ul of solvent (ethanol, 0.1 M HCl or distilled H2O) were added to 14-16 mg of the solid compound (5 parallel measurements per sample, per solvent, mean concentrations 93-107 mM). The mixtures were shaken at 37° C. for 24 and 72 hours. Concentrations of the filtrates were determined by liquid chromatography with UV detector (LC/UV) with 3-point calibration.
Crystal form was checked by X-ray powder diffraction (XRPD) after recovering the slurry at 24 and 72 hours. […] The exact cause of this observed phenomenon is not known.

[2] = as above; format: physicochemical; conditions: water and 1.0 M HCl, 24 vs 72 hours
[3] = organic solvent or mixture, ethanol, read-out: Thermodynamic solubility, Ethanol, Mean
[4] = simulated gastric fluid, 0.1M HCl, read-out: Thermodynamic solubility, 0.1M HCl, Mean
[5] = distilled water, read-out: Thermodynamic solubility, Distilled water, Mean
[6] = distilled water, read-out: Thermodynamic solubility, distilled water, Mean

Structure (SMILES)	solubility thermodynamic at 24 h [1, 3] [µM]	solubility thermodynamic at 72 h [1, 3] [µM]	solubility thermodynamic at 24 h [1, 4] [µM]	solubility thermodynamic at 72 h [1, 4] [µM]	solubility thermodynamic at 24 h [1, 5] [µM]	solubility thermodynamic at 72 h [1, 6] [µM]	Tendency of water and HCl solubilities between 24 and 72 hours [2]
COCC(=O)[C@@]1(OC(C)=O)CC[C@H]2[C@@H]3CCC4=CC(=O)CCC4=C3[C@@H](c3ccc(C(C)=O)cc3)C[C@@]21C [CDB-4239, 21-methoxy-17α-acetoxy-11β-(4-acetylphenyl)-19-norpregna-4,9-diene-3,20-dione]	> 98200	> 100000	140 (≈ 70.8 µg/mL)	110 (≈ 55.6 µg/mL)	141 (≈ 70.9 µg/mL)	54.8 (≈ 27.7 µg/mL)	decreasing tendency
CC(=O)OCC(=O)[C@@]1(OC(C)=O)CC[C@H]2[C@@H]3CCC4=CC(=O)CCC4=C3[C@@H](c3ccc(C(C)=O)cc3)C[C@@]21C [CDB-4241, 21-acetoxy-17α-acetoxy-11β-(4-acetylphenyl)-19-norpregna-4,9-diene-3,20-dione]	26300 (≈ 14000 µg/mL)	21600 (≈ 11500 µg/mL)	3.21 (≈ 1.71 µg/mL)	3.9 (≈ 2.08 µg/mL)	3.08 (≈ 1.64 µg/mL)	3.05 (≈ 1.62 µg/mL)	–
